How the values were obtained:
Assay type in all cases: in vivo
[1] = tested on: Digitaria sanguinalis (DIGSA); assay: Pre-emergence herbicide efficacy at 80 g/ha, greenhouse pot test; details: visual scoring vs untreated control after about 3 weeks
Method in brief: (§1)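 Seeds were sown in pots and covered with soil, then the compound (WP or EC formulation) was sprayed onto the soil surface as an aqueous suspension or emulsion with 0.5% additive. Pots were kept in a greenhouse, and after about 3 weeks activity was scored visually versus untreated controls (100% = plants dead, 0% = like control).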

Setaria viridis (SETVI) [2] = assay: as above; details: visual scoring vs untreated control after about 3 weeks
Method in brief: as §1

[3] = tested on: Alopecurus myosuroides (ALOMY); assay: as above; details: visual scoring vs untreated control after about 3 weeks
Method in brief: as §1

Ipomoea purpurea (PHBPU) = assay: as above; details: visual scoring vs untreated control after about 3 weeks
Method in brief: as §1

[4] = tested on: Amaranthus retroflexus (AMARE); assay: as above; details: visual scoring vs untreated control after about 3 weeks
Method in brief: as §1

[5] = tested on: Polygonum convolvulus (POLCO); assay: as above; details: visual scoring vs untreated control after about 3 weeks
Method in brief: as §1

[6] = tested on: Matricaria inodora (MATIN); assay: as above; details: visual scoring vs untreated control after about 3 weeks
Method in brief: as §1

[7] = tested on: Abutilon theophrasti (ABUTH); assay: as above; details: visual scoring vs untreated control after about 3 weeks
Method in brief: as §1

Avena fatua (AVEFA) = assay: as above; details: visual scoring vs untreated control after about 3 weeks
Method in brief: as §1

Viola tricolor (VIOTR) [8] = assay: as above; details: visual scoring vs untreated control after about 3 weeks
Method in brief: as §1

Veronica persica (VERPE) [9] = assay: as above; details: visual scoring vs untreated control after about 3 weeks
Method in brief: as §1

[10] = tested on: Alopecurus myosuroides (ALOMY); assay: Post-emergence herbicidal efficacy at 80 g/ha, greenhouse pot test; details: visual rating vs untreated control after about 3 weeks
Method in brief: (§2)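 Sown in sandy loam, treated 2–3 weeks after sowing at one-leaf stage with WP or EC formulations sprayed post-emergence in water (600 l/ha) plus 0.5% additive. Kept in greenhouse ~3 weeks, then activity scored visually vs untreated controls (100% = plants dead, 0% = like control).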

[11] = tested on: Amaranthus retroflexus (AMARE); assay: as above; details: visual rating vs untreated control after about 3 weeks
Method in brief: as §2

[12] = tested on: Polygonum convolvulus (POLCO); assay: as above; details: visual rating vs untreated control after about 3 weeks
Method in brief: as §2

Viola tricolor (VIOTR) [13] = assay: as above; details: visual rating vs untreated control after about 3 weeks
Method in brief: as §2

Veronica persica (VERPE) [14] = assay: as above; details: visual rating vs untreated control after about 3 weeks
Method in brief: as §2

Lolium rigidum (LOLRI) = assay: Post-emergence herbicidal efficacy at 320 g/ha, greenhouse pot test; details: visual rating vs untreated control after about 3 weeks
Method in brief: (§3)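 Greenhouse pots, sandy loam; treated at one-leaf stage (2–3 wk post-sowing). WP/EC in water + 0.5% additive, 600 L/ha onto green parts. Visual % rating at ~3 wk vs untreated (100% = dead, 0% = as control).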

Poa annua (POAAN) [15] = assay: as above; details: visual rating vs untreated control after about 3 weeks
Method in brief: as §3

Bassia scoparia (KCHSC) [16] = assay: as above; details: visual rating vs untreated control after about 3 weeks
Method in brief: as §3

Setaria viridis (SETVI) [17] = assay: as above; details: visual rating vs untreated control after about 3 weeks
Method in brief: as §3

[18] = tested on: Amaranthus retroflexus (AMARE); assay: as above; details: visual rating vs untreated control after about 3 weeks
Method in brief: as §3

Stellaria media (STEME) [19] = assay: as above; details: visual rating vs untreated control after about 3 weeks
Method in brief: as §3

[20] = tested on: Abutilon theophrasti (ABUTH); assay: as above; details: visual rating vs untreated control after about 3 weeks
Method in brief: as §3

Veronica persica (VERPE) [21] = assay: as above; details: 320 g/ha, visual rating vs untreated control after about 3 weeks
Method in brief: as §3

Poa annua (POAAN) [22] = assay: Pre-emergence herbicide efficacy at 320 g/ha, greenhouse pot test; details: visual scoring vs untreated control after about 3 weeks
Method in brief: (§4)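 Visual percent activity versus untreated controls, rated roughly 3 weeks post-treatment in greenhouse (0% = like control, 100% = dead). Pre-emergence application to covering sandy loam soil as aqueous suspension/emulsion, 600 L/ha, plus 0.5% additive.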

Bassia scoparia (KCHSC) [23] = assay: as above; details: dosage 1280 g/ha in Table C6, visual scoring after about 3 weeks
Method in brief: as §4

[24] = tested on: Echinochloa crus-galli (ECHCG); assay: as above; details: visual scoring vs untreated control after about 3 weeks
Method in brief: as §4

Setaria viridis (SETVI) [25] = assay: as above; details: visual scoring vs untreated control after about 3 weeks
Method in brief: as §4

[26] = tested on: Alopecurus myosuroides (ALOMY); assay: as above; details: visual scoring vs untreated control after about 3 weeks
Method in brief: as §4

[27] = tested on: Amaranthus retroflexus (AMARE); assay: as above; details: visual scoring vs untreated control after about 3 weeks
Method in brief: as §4

Stellaria media (STEME) [28] = assay: as above; details: visual scoring vs untreated control after about 3 weeks
Method in brief: as §4

[29] = tested on: Matricaria inodora (MATIN); assay: as above; details: visual scoring vs untreated control after about 3 weeks
Method in brief: as §4

[30] = tested on: Abutilon theophrasti (ABUTH); assay: as above; details: visual scoring vs untreated control after about 3 weeks
Method in brief: as §4

Veronica persica (VERPE) [31] = assay: as above; details: visual scoring vs untreated control after about 3 weeks
Method in brief: as §4

[32] = tested on: Echinochloa crus-galli (ECHCG); assay: Post-emergence herbicidal efficacy at 320 g/ha, greenhouse pot test; details: visual rating vs untreated control after about 3 weeks
Method in brief: as §3

[33] = tested on: Alopecurus myosuroides (ALOMY); assay: as above; details: visual rating vs untreated control after about 3 weeks
Method in brief: as §3

[34] = tested on: Digitaria sanguinalis (DIGSA); assay: Pre-emergence herbicide efficacy at 320 g/ha, greenhouse pot test; details: visual scoring vs untreated control after about 3 weeks
Method in brief: as §4

Row | Structure (SMILES) | Pre-emergence efficacy against Setaria viridis (SETVI) (Setaria viridis (SETVI) [2]) [%] | Pre-emergence efficacy against Alopecurus myosuroides (ALOMY) [3] [%] | Pre-emergence efficacy against Amaranthus retroflexus (AMARE) [4] [%] | Pre-emergence efficacy against Polygonum convolvulus (POLCO) [5] [%] | Pre-emergence efficacy against Matricaria inodora (MATIN) [6] [%] | Pre-emergence efficacy against Abutilon theophrasti (ABUTH) [7] [%] | Pre-emergence efficacy against Viola tricolor (VIOTR) (Viola tricolor (VIOTR) [8]) [%] | Pre-emergence efficacy against Veronica persica (VERPE) (Veronica persica (VERPE) [9]) [%] | Post-emergence efficacy against Alopecurus myosuroides (ALOMY) [10] [%] | Post-emergence efficacy against Amaranthus retroflexus (AMARE) [11] [%] | Post-emergence efficacy against Polygonum convolvulus (POLCO) [12] [%] | Post-emergence efficacy against Viola tricolor (VIOTR) (Viola tricolor (VIOTR) [13]) [%] | Post-emergence efficacy against Veronica persica (VERPE) (Veronica persica (VERPE) [14]) [%] | Post-emergence efficacy against Amaranthus retroflexus (AMARE) [18] [%] | Post-emergence action against Stellaria media (STEME) (Stellaria media (STEME) [19]) [%] | Post-emergence efficacy against Veronica persica (VERPE) (Veronica persica (VERPE) [21]) [%] | Pre-emergence efficacy against Poa annua (POAAN) (Poa annua (POAAN) [22]) [%] | Pre-emergence efficacy against Echinochloa crus-galli (ECHCG) [24] [%] | Pre-emergence efficacy against Setaria viridis (SETVI) (Setaria viridis (SETVI) [25]) [%] | Pre-emergence efficacy against Alopecurus myosuroides (ALOMY) [26] [%] | also measured
1 | Cc1cc(C)c(-c2cc(C(F)F)no2)c(Oc2ncc(F)cn2)n1 [Example I-4] | 100 | 90 | 100 | 90 | 90 | 100 | 100 | 100 | 90 | 100 | 90 | 80 | 90 | – | – | – | – | – | – | – | Pre-emergence efficacy against Digitaria sanguinalis (DIGSA) [1]: 100%; Pre-emergence efficacy against Ipomoea purpurea (PHBPU) (Ipomoea purpurea (PHBPU)): 80%; Pre-emergence efficacy against Avena fatua (AVEFA) (Avena fatua (AVEFA)): 80%
2 | Cc1cc(C)c(-c2cc(C(F)F)no2)c(Oc2ncc(Br)cn2)n1 [Example I-41] | 80 | 80 | 100 | 90 | 80 | 80 | 80 | 80 | – | 90 | 80 | – | 90 | 100 | 100 | 100 | 100 | 90 | 100 | 90 | Post-emergence efficacy against Lolium rigidum (LOLRI) (Lolium rigidum (LOLRI)): 90%; Post-emergence efficacy against Poa annua (POAAN) (Poa annua (POAAN) [15]): 100%; Post-emergence efficacy against Bassia scoparia (KCHSC) (Bassia scoparia (KCHSC) [16]): 100%; Post-emergence efficacy against Setaria viridis (SETVI) (Setaria viridis (SETVI) [17]): 90%; Post-emergence efficacy against Abutilon theophrasti (ABUTH) [20]: 90%; Pre-emergence efficacy against Bassia scoparia (KCHSC) (Bassia scoparia (KCHSC) [23]): 100%; Pre-emergence efficacy against Amaranthus retroflexus (AMARE) [27]: 100%; Pre-emergence efficacy against Stellaria media (STEME) (Stellaria media (STEME) [28]): 100%; Pre-emergence efficacy against Matricaria inodora (MATIN) [29]: 100%; Pre-emergence efficacy against Abutilon theophrasti (ABUTH) [30]: 100%; Pre-emergence efficacy against Veronica persica (VERPE) (Veronica persica (VERPE) [31]): 100%
3 | Cc1cc(C)c(-c2cc(C(F)(F)F)on2)c(Oc2ncc(Cl)cn2)n1 [Example I-7] | 100 | 100 | 100 | 90 | 90 | 100 | 100 | 90 | 90 | 80 | – | 90 | – | 90 | 100 | 100 | 100 | 100 | 100 | 90 | Post-emergence efficacy against Echinochloa crus-galli (ECHCG) [32]: 90%; Post-emergence efficacy against Alopecurus myosuroides (ALOMY) [33]: 90%; Pre-emergence efficacy against Digitaria sanguinalis (DIGSA) [34]: 100%; Pre-emergence efficacy against Amaranthus retroflexus (AMARE) [27]: 100%; Pre-emergence efficacy against Stellaria media (STEME) (Stellaria media (STEME) [28]): 100%; Pre-emergence efficacy against Matricaria inodora (MATIN) [29]: 100%; Pre-emergence efficacy against Abutilon theophrasti (ABUTH) [30]: 100%; Pre-emergence efficacy against Veronica persica (VERPE) (Veronica persica (VERPE) [31]): 100%

Reference: patent publication US20230303549A1, “SUBSTITUTED HETEROARYLOXYPYRIDINES, THE SALTS THEREOF AND THEIR USE AS HERBICIDAL AGENTS” (Bayer Aktiengesellschaft, priority 2020, published 2023)
